Results from PMC9633773, “Discovering cell-active BCL6 inhibitors: effectively combining biochemical HTS with multiple biophysical techniques, X-ray crystallography and cell-based assays” (Scientific Reports, 2022).
In brackets after ≈: the same amount, converted by molar mass. Read-outs that look alike come from different tables or passages of the source.

Experiments:
Caco-2 efflux ratio = format: in vitro ADME; conditions: human
[1] = PAMPA passive permeability; format: in vitro ADME; design: PAMPA pH7.4: unit not given here; conditions: pH 7.4
Description: Passive diffusion permeability was measured using a parallel artificial membrane permeability assay (PAMPA). The assay used an artificial membrane consisting of 2% (v/v) phosphatidyl choline in dodecane (Sigma Aldrich, Dorset, UK). The donor plate was a MultiScreen-IP Plate with a 0.45 µm hydrophobe Immobilon-P membrane (Millipore, UK) and the acceptor plate was a MultiScreen 96-well transport receiver plate (Millipore, UK). The permeability of test compound (10 µM) was measured at pH 7.4 in buffer containing 1% (w/v) Bovine Serum Albumin (Sigma Aldrich, Dorset, UK) following a 16 h incubation at 30 °C. After transfer and centrifugation, sample supernatants were diluted and analysed using a Waters (Milford, MA, US) TQ-S LC-MS/MS system. Permeability values (cm/s) were calculated using the following equation, where VD and VA are the volumes of donor and acceptor, respectively, and area is the surface area of the membrane x porosity: Papp=C x ln1-Drugacceptor/Drugequilibrium,whereC=VDxVA/VD+VAx area x time

Trx-6His-BCL6 BTB = biological target: T1, Trx-6His-BCL6 BTB (Homo sapiens, UniProt P41182); test: TR-FRET assay, Trx-6His-BCL6 BTB / BCOR-A633 peptide; format: biochemical
T1 construct: made in house; host or cells: E. coli BL21-AI
Description: Each 15 µL TR-FRET reaction in 384-well black Proxiplate (Perkin Elmer) contained 1 or 10 nM Trx-6His-BCL6 BTB, 300 nM BCOR-A633 and 0.5 or 1 nM anti-6His-Terbium cryptate (Perkin Elmer), in the FP assay buffer (25 mM Hepes pH 8, 100 mM NaCl, 0.05% (v/v) Tween20, 0.5 mM TCEP), supplemented with 0.05% (w/v) bovine serum albumin. Test compounds in DMSO or DMSO alone were added to the wells using and Echo 550 acoustic dispenser to give the appropriate test concentration in 0.7% v/v DMSO final. After a 2 h incubation at room temperature, the plates were read on an Envision plate reader or a Pherastar FSX plate reader with 337 nm laser excitation, a first emission filter at 665 nm and a second emission filter at 615 or 620 nm. Data were normalised and IC50 determined as described above for the FP assay.

HPLC aqueous solubility = format: physicochemical; conditions: aqueous buffer, kinetic from dmso stock; PBS buffer pH 7.4, 1% DMSO, maximum targeted concentration 100 µM; read-out: HPLC Sol.
Description: Solubility measurements by quantitative ^1H-NMR or HPLC method were performed as described previously.

[2] = biological target: T2, ePL-tagged BCL6 BTB in HEK293T cells (Homo sapiens, UniProt P41182); test: InCELL Hunter cellular target engagement assay; format: cell-based
T2 construct: BCL6 BTB domain (HDSD51 plasmid construct encoding amino-acids 14–135) fused to a C-terminal ePL tag; expressed in transfected cells; host or cells: HEK293T
Description: BCL6 cellular target engagement assays were established using the InCELL Hunter™ Target Engagement Kit from DiscoverX-Eurofin. For the assay, the expressed protein comprised the N-terminal truncated region of BCL6 BTB domain (HDSD51 plasmid construct encoding amino-acids 14–135) fused to a C-terminal ePL tag (enhanced ProLabel, DiscoverX). Constructs were transfected over 24 h in HEK293T cells using Lipofectamine 3000 (ThermoFisher Scientific) and 2.5 × 10^5 transfected cells / well in phenol red-free OptiMEM medium (ThermoFisher Scientific) were re-plated in 384 assay plates before treating with compounds for 6 h. To complete the assay, cells were incubated for 30 min at room temperature with the InCell Hunter assay reagents mix following the manufacturer’s instructions, before reading the chemiluminescent signal on an Envision (Perkin Elmer) plate reader.

[3] = biological target: T3, full-length BCL6/SMRT protein–protein interaction in HEK293T cells (Homo sapiens, UniProt P41182); test: NanoBRET cellular assay; format: cell-based
T3 construct: DNA encoding full length BCL6 and SMRT was inserted into pFC32K NanoLuc and pFC14K HaloTag vectors; expressed in transfected cells; host or cells: HEK293T

Row | efflux ratio (Caco-2 efflux ratio) | Papp at 16 h, 10 µM ([1]; PAMPA, read-out: PAMPA passive cell permeability) [×10⁻⁶ cm/s] | IC50 (Trx-6His-BCL6 BTB; 1 or 10 nM Trx-6His-BCL6 BTB, read-out: TR-FRET IC50) [nM] | solubility kinetic (HPLC aqueous solubility) [µM] | PAMPA pH7.4 [1] | EC50 ([2]; Figure 6B, ePL-tagged BCL6 BTB 14–135, 6 h, n=3, read-out: InCELL Hunter EC50) [nM] | EC50 ([2]; Table S3, C-terminally ePL-tagged BCL6 BTB 14-135, 6 hours, read-out: InCELL Geomean EC50) [nM] | IC50 ([3]; BCL6.NanoLuc/SMRT.HaloTag configuration, HEK293T, 6 h, geometric mean n=3–4, read-out: Nano BRET Geo Mean IC50) [nM] | NanoBRET inhibition, HaloTag.BCL6/NanoLuc.SMRT combination ([3]; BCL6 N-terminally fused to HaloTag) | IC50 ([3]; Figure 7B, C-terminally NanoLuc tagged BCL6 / SMRT.HaloTag, read-out: NanoBRET IC50, BCL6.NanoLuc) [nM] | IC50 (Trx-6His-BCL6 BTB; 1 nM BCL6 BTB domain, geometric mean n=3–5, read-out: TR-FRET Geo Mean IC50) [nM] | SMILES
1 | 0.72 | 110 | 2100 ± 100 |  |  |  |  |  |  |  |  | CC(C)OC(=O)c1cc(Nc2ccc3c(c2)CC(=O)N3C)n2nccc2n1 [Compound 25, isopropyl 7-((1-methyl-2-oxoindolin-5-yl)amino)pyrazolo[1,5-a]pyrimidine-5-carboxylate]
2 |  |  |  | 80 (≈ 35.4 µg/mL) | 19 | 24000 ± 9000 | 23700 | 2930 | only very weak inhibition | 3000 | 500 | CNC(=O)c1cc(Nc2ccc3c(c2)n(CCC(C)(C)O)c(=O)n3C)c(C#N)c(Cl)n1 [Compound 27]
